Laboratory results taken from patent publication US12391737B2, “Soluble NPY2 receptor agonists” (Boehringer Ingelheim International GmbH, priority 2020, dated 2025).
*1 amine or outer side, *2 acyl side, *3 side chain or, on linkers, in order; H or OH if unused. Where a SMILES comes first, the peptide text is derived from it. Side-chain parts run from the residue outwards. The star is where a group is joined. C18 diacid = O=C(O)CCCCCCCCCCCCCCCCC(=O)*; γGlu = O=C(O)[C@H](CCC(=O)[*:2])N[*:1]; Isovaleryl = CC(C)CC(=O)*; Ahx = NCCCCCC(=O)O

What was measured:
[1] = target: T1, Human Neuropeptide Y2 Receptor (Homo sapiens, UniProt P49146); assay: Radioligand binding competition assay (RLB); details: Table 3, 125I-PYY(1-36) competition; read-out: Ki
T1 construct: purchased CHEMICON HTS066M
T1 sequence (P49146 1-381): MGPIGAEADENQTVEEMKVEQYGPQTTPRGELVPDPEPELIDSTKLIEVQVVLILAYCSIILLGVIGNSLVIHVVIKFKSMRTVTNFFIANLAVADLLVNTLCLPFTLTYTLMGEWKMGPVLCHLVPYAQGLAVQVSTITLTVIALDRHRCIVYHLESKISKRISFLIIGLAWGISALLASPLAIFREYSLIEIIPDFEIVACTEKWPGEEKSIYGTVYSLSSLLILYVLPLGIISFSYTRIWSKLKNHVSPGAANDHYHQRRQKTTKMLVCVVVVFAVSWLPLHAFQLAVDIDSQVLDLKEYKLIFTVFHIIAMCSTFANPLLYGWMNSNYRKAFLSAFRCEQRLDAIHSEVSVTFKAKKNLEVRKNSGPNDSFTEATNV
In short: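 IC50 values come from sigmoidal dose-response fits of scintillation counts after peptides competed for radioligand binding at receptor membranes (0.5 μg protein/well). Incubation ran 2 h at room temperature in HEPES buffer, pH 7.4, with Mg2+, Ca2+ and 0.2% ovalbumin.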

Solubility determination = details: for Sol6: pH 6; for Sol7: pH 7
In short: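 Sample: TFA-salt peptide at 10 mg/ml target in 0.1 M Na diphosphate, pH 6.4 or 7.0, shaken 2 h RT, filtered, diluted to 1 mg/ml.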

Ki [1] [nM] | Sol6 (Solubility determination) [mg/mL] | Sol7 (Solubility determination) [mg/mL] | SMILES
15.3 | 7.8 | >10.0 | CC(C)CC(=O)N[C@@H](C)C(=O)N1CCC[C@H]1C(=O)N[C@@H](CCC(=O)O)C(=O)N[C@@H](CCCCNC(=O)CCCCCNC(=O)CC[C@H](NC(=O)CCCCCCCCCCCCCCCCC(=O)O)C(=O)O)C(=O)N1CCC[C@H]1C(=O)N[C@@H](CCC(=O)O)C(=O)N[C@@H](CCC(=O)O)C(=O)N[C@@H](CC(=O)O)C(=O)N[C@@H](C)C(=O)N[C@H](C(=O)N1CCC[C@H]1C(=O)N[C@@H](CCC(=O)O)C(=O)N[C@@H](CCC(=O)O)C(=O)N1CCC[C@H]1C(=O)N[C@@H](CCC(N)=O)C(=O)N[C@@H](CCCNC(=N)N)C(=O)N[C@@H](Cc1ccc(O)cc1)C(=O)N[C@@H](Cc1ccc(O)cc1)C(=O)N[C@H](C(=O)N[C@@H](CO)C(=O)N[C@@H](CC(C)C)C(=O)N[C@@H](CCCNC(=N)N)C(=O)N[C@@H](Cc1c[nH]cn1)C(=O)N[C@@H](Cc1ccc(O)cc1)C(=O)N[C@@H](Cc1ccc(O)cc1)C(=O)N[C@@H](CC(N)=O)C(=O)N[C@@H](Cc1c[nH]c2ccccc12)C(=O)N[C@@H](CC(C)C)C(=O)N[C@H](C(=O)N[C@@H](CCCNC(=N)N)C(=O)N[C@@H](CCC(N)=O)C(=O)N[C@@H](CCCNC(=N)N)C(=O)N[C@@H](Cc1ccc(O)cc1)C(N)=O)[C@@H](C)O)C(C)C)[C@@H](C)O [Compound 187, N{alpha-4}-(3-methylbutanoyl)-N{epsilon-7}-(6-[(4S)-4-carboxy-4-(17-carboxyheptadecanamido)butanamido]hexanoyl)-[4A,7K,9E,13T,17P,18Q,22V,28Y,30W,31L]-hPYY(4-36)]
0.21 | 3.1 | 1.2 | CC(C)CC(=O)N[C@@H](C)C(=O)N1CCC[C@H]1C(=O)N[C@@H](CCC(=O)O)C(=O)N[C@@H](CCCCNC(=O)CCCCCNC(=O)CC[C@H](NC(=O)CCCCCCCCCCCCCCCCC(=O)O)C(=O)O)C(=O)N1CCC[C@H]1C(=O)NCC(=O)N[C@@H](C)C(=O)N[C@@H](CC(=O)O)C(=O)N[C@@H](C)C(=O)N[C@@H](CO)C(=O)N1CCC[C@H]1C(=O)N[C@@H](CCC(=O)O)C(=O)N[C@@H](CCCCN)C(=O)N[C@@H](CC(C)C)C(=O)N[C@@H](CCC(N)=O)C(=O)N[C@@H](CCCNC(=N)N)C(=O)N[C@@H](Cc1ccc(O)cc1)C(=O)N[C@@H](Cc1ccc(O)cc1)C(=O)N[C@H](C(=O)N[C@@H](CO)C(=O)N[C@@H](CC(C)C)C(=O)N[C@@H](CCCNC(=N)N)C(=O)N[C@@H](Cc1c[nH]cn1)C(=O)N[C@@H](Cc1ccc(O)cc1)C(=O)N[C@@H](Cc1ccc(O)cc1)C(=O)N[C@@H](Cc1c[nH]cn1)C(=O)N[C@@H](CCCCN)C(=O)N[C@@H](CC(C)C)C(=O)N[C@H](C(=O)N[C@@H](CCCNC(=N)N)C(=O)N[C@@H](CCC(N)=O)C(=O)N[C@@H](CCCNC(=N)N)C(=O)N[C@@H](Cc1ccc(O)cc1)C(N)=O)[C@@H](C)O)C(C)C [Compound 174, N{alpha-4}-(3-methylbutanoyl)-N{epsilon-7}-(6-[(4S)-4-carboxy-4-(17-carboxyheptadecanamido)butanamido]hexanoyl)-[4A,7K,10A,16K,18Q,22V,28Y,29H,30K,31L]-hPYY(4-36)] (Isovaleryl-APEK([Ahx-γGlu-C18 diacid])PGADASPEKLQRYYVSLRHYYHKLTRQRY-NH2)

Continued, compound first:

SMILES | Ki [1] [nM] | Sol6 (Solubility determination) [mg/mL] | Sol7 (Solubility determination) [mg/mL]
CC(C)CC(=O)N[C@@H](C)C(=O)N1CCC[C@H]1C(=O)N[C@@H](C)C(=O)N[C@@H](CCCCNC(=O)CCCCCNC(=O)CC[C@H](NC(=O)CCCCCCCCCCCCCCCCC(=O)O)C(=O)O)C(=O)N1CCC[C@H]1C(=O)N[C@@H](CCC(=O)O)C(=O)N[C@@H](CCC(=O)O)C(=O)N[C@@H](CC(=O)O)C(=O)N[C@@H](C)C(=O)N[C@@H](CO)C(=O)N1CCC[C@H]1C(=O)N[C@@H](CCC(=O)O)C(=O)N[C@@H](CCC(=O)O)C(=O)N[C@@H](CC(C)C)C(=O)N[C@@H](CCC(N)=O)C(=O)N[C@@H](CCCNC(=N)N)C(=O)N[C@@H](Cc1ccc(O)cc1)C(=O)N[C@@H](Cc1ccc(O)cc1)C(=O)N[C@H](C(=O)N[C@@H](CCC(=O)O)C(=O)N[C@@H](CC(C)C)C(=O)N[C@@H](CCCNC(=N)N)C(=O)N[C@@H](Cc1c[nH]cn1)C(=O)N[C@@H](Cc1ccc(O)cc1)C(=O)N[C@@H](Cc1ccc(O)cc1)C(=O)N[C@@H](CC(N)=O)C(=O)N[C@@H](Cc1c[nH]c2ccccc12)C(=O)N[C@@H](CC(C)C)C(=O)N[C@H](C(=O)N[C@@H](CCCNC(=N)N)C(=O)N[C@@H](CCC(N)=O)C(=O)N[C@@H](CCCNC(=N)N)C(=O)N[C@@H](Cc1ccc(O)cc1)C(N)=O)[C@@H](C)O)C(C)C [Compound 166, N{alpha-4}-(3-methylbutanoyl)-N{epsilon-7}-(6-[(4S)-4-carboxy-4-(17-carboxyheptadecanamido)butanamido]hexanoyl)-[4A,6A,7K,9E,18Q,22V,23E,28Y,30W,31L]-hPYY(4-36)] | 2.05 | 9.2 | 9.7
CC(C)CC(=O)N[C@@H](C)C(=O)N1CCC[C@H]1C(=O)N[C@@H](CCC(=O)O)C(=O)N[C@@H](CCCCNC(=O)CCCCCNC(=O)CC[C@H](NC(=O)CCCCCCCCCCCCCCCCC(=O)O)C(=O)O)C(=O)N1CCC[C@H]1C(=O)N[C@@H](CCC(=O)O)C(=O)N[C@@H](CCC(=O)O)C(=O)N[C@@H](CC(=O)O)C(=O)N[C@@H](C)C(=O)N[C@H](C(=O)N1CCC[C@H]1C(=O)N[C@@H](CCC(=O)O)C(=O)N[C@@H](CCC(=O)O)C(=O)N[C@@H](CC(C)C)C(=O)N[C@@H](CCC(N)=O)C(=O)N[C@@H](CCCNC(=N)N)C(=O)N[C@@H](Cc1ccc(O)cc1)C(=O)N[C@@H](Cc1ccc(O)cc1)C(=O)N[C@H](C(=O)N[C@H](C(=O)N[C@@H](CC(C)C)C(=O)N[C@@H](CCCNC(=N)N)C(=O)N[C@@H](Cc1c[nH]cn1)C(=O)N[C@@H](Cc1ccc(O)cc1)C(=O)N[C@@H](Cc1ccc(O)cc1)C(=O)N[C@@H](CC(N)=O)C(=O)N[C@@H](Cc1c[nH]c2ccccc12)C(=O)N[C@@H](CC(C)C)C(=O)N[C@H](C(=O)N[C@@H](CCCNC(=N)N)C(=O)N[C@@H](CCC(N)=O)C(=O)N[C@@H](CCCNC(=N)N)C(=O)N[C@@H](Cc1ccc(O)cc1)C(N)=O)[C@@H](C)O)C(C)C)C(C)C)[C@@H](C)O [Compound 90, N{alpha-4}-(3-methylbutanoyl)-N{epsilon-7}-(6-[(4S)-4-carboxy-4-(17-carboxyheptadecanamido)butanamido]hexanoyl)-[4A,7K,9E,13T,18Q,22V,23V,28Y,30W,31L]-hPYY(4-36)] | 8.71 | 9.6 | 10.0
CC[C@H](C)[C@H](NC(=O)[C@H](CCC(=O)O)NC(=O)[C@H](CCC(=O)O)NC(=O)[C@@H]1CCCN1C(=O)[C@H](CO)NC(=O)[C@H](C)NC(=O)[C@H](CC(=O)O)NC(=O)[C@H](CCC(=O)O)NC(=O)[C@@H]1CCCN1C(=O)[C@@H]1CCCN1C(=O)[C@H](CCCCNC(=O)CCCCCNC(=O)CC[C@H](NC(=O)CCCCCCCCCCCCCCCCC(=O)O)C(=O)O)NC(=O)[C@H](C)NC(=O)[C@@H]1CCCN1C(=O)[C@H](C)NC(=O)CC(C)C)C(=O)N[C@@H](CCC(N)=O)C(=O)N[C@@H](CCCNC(=N)N)C(=O)N[C@@H](Cc1ccc(O)cc1)C(=O)N[C@@H](Cc1ccc(O)cc1)C(=O)N[C@H](C(=O)N[C@@H](CO)C(=O)N[C@@H](CC(C)C)C(=O)N[C@@H](CCCNC(=N)N)C(=O)N[C@@H](Cc1c[nH]cn1)C(=O)N[C@@H](Cc1ccc(O)cc1)C(=O)N[C@@H](Cc1ccc(O)cc1)C(=O)N[C@@H](CC(N)=O)C(=O)N[C@@H](Cc1c[nH]c2ccccc12)C(=O)N[C@@H](CC(C)C)C(=O)N[C@H](C(=O)N[C@@H](CCCNC(=N)N)C(=O)N[C@@H](CCC(N)=O)C(=O)N[C@@H](CCCNC(=N)N)C(=O)N[C@@H](Cc1ccc(O)cc1)C(N)=O)[C@@H](C)O)C(C)C [Compound 82, N{alpha-4}-(3-methylbutanoyl)-N{epsilon-7}-(6-[(4S)-4-carboxy-4-(17-carboxyheptadecanamido)butanamido]hexanoyl)-[4A,6A,7K,9P,17I,18Q,22V,28Y,30W,31L]-hPYY(4-36)] | 0.58 | 0.0 | 9.0
CC[C@H](C)[C@H](NC(=O)[C@H](CCC(=O)O)NC(=O)[C@H](CCC(=O)O)NC(=O)[C@@H]1CCCN1C(=O)[C@@H](NC(=O)[C@H](C)NC(=O)[C@H](C)NC(=O)[C@H](CCC(=O)O)NC(=O)[C@H](CCC(=O)O)NC(=O)[C@@H]1CCCN1C(=O)[C@H](CCCCNC(=O)CCCCCNC(=O)CC[C@H](NC(=O)CCCCCCCCCCCCCCCCC(=O)O)C(=O)O)NC(=O)[C@H](C)NC(=O)[C@@H]1CCCN1C(=O)[C@H](C)NC(=O)CC(C)C)[C@@H](C)O)C(=O)N[C@@H](CCC(N)=O)C(=O)N[C@@H](CCCNC(=N)N)C(=O)N[C@@H](Cc1ccc(O)cc1)C(=O)N[C@@H](Cc1ccc(O)cc1)C(=O)N[C@H](C(=O)N[C@@H](CO)C(=O)N[C@@H](CC(C)C)C(=O)N[C@@H](CCCNC(=N)N)C(=O)N[C@@H](Cc1c[nH]cn1)C(=O)N[C@@H](Cc1ccc(O)cc1)C(=O)N[C@@H](Cc1ccc(O)cc1)C(=O)N[C@@H](CC(N)=O)C(=O)N[C@@H](Cc1c[nH]c2ccccc12)C(=O)N[C@@H](CC(C)C)C(=O)N[C@H](C(=O)N[C@@H](CCCNC(=N)N)C(=O)N[C@@H](CCC(N)=O)C(=O)N[C@@H](CCCNC(=N)N)C(=O)N[C@@H](Cc1ccc(O)cc1)C(N)=O)[C@@H](C)O)C(C)C [Compound 36, N{alpha-4}-(3-methylbutanoyl)-N{epsilon-7}-(6-[(4S)-4-carboxy-4-(17-carboxyheptadecanamido)butanamido]hexanoyl)[4A,6A,7K,9E,11A,13T,17I,18Q,22V,28Y,30W,31L]-hPYY(4-36)] | 1.25 | 0.0 | 0.4
